Data: patent US12091402B2 (Avilar Therapeutics, Inc., priority 2021, dated 2024)
Like-named read-outs stand apart in the source and are kept apart here.

Experiments:
[1] = target: T1, ASGPR receptor on the cell surface (HepG2 cells) (Homo sapiens, UniProt P07306); experiment: Ternary complex formation assay (flow cytometry, HepG2); assay type: cell-based
T1 construct: host or cells: HepG2
T1 sequence (P07306 1-291): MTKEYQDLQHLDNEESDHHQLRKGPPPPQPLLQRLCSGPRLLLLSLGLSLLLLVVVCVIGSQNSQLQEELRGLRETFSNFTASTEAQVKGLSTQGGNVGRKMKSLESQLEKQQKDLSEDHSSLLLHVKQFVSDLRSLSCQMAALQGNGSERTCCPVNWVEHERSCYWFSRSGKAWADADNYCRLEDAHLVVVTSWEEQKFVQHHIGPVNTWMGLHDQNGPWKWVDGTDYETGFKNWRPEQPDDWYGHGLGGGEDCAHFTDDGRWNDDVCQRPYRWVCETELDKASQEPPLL
T1 sequence (P07307 1-311 partner): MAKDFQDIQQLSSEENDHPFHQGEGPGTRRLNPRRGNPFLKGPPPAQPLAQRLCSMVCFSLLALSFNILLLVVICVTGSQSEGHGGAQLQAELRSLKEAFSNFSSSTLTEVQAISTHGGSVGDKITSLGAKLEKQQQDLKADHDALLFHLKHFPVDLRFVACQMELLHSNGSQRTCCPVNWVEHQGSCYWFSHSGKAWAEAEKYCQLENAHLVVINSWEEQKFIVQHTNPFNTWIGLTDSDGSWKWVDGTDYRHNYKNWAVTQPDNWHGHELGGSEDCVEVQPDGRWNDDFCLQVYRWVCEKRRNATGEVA
Summary of the method: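 HepG2 cells (1×10^5/well) incubated 1 h at 4 °C with 100 nM AF488-labeled anti-human IgG plus serial IgG-based degrader, or 100 nM AF488 rabbit anti-DNP plus serial DNP-based degrader. After washing, cell-associated AF488 MFI read by flow cytometry; peak MFI marks optimal degrader concentration for ternary complex.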

ASGPR = target: T2, ASGPR (Homo sapiens, UniProt P07306); experiment: Affinity to ASGPR by surface plasmon resonance (SPR)
T2 sequence (P07306 1-291): T1 sequence (P07306 1-291)

HepG2 cells = experiment: Cellular uptake assay of AF488-labeled antibody (HepG2); assay type: cell-based; conditions: HepG2 cells
Summary of the method: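 HepG2 cells given 100 nM AF488-labeled human IgG or DNP antibody plus serial dilutions of matching degrader (0.1% DMSO final), 6 h at 37° C. Methanol-fixed, DAPI-stained and imaged by high-content analysis. Value is the fraction of AF488-positive cells over total DAPI-counted cells.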

IgG = experiment: Affinity to IgG by surface plasmon resonance (SPR); assay type: binding
Protocol: Immobilization levels ranging from 1000-1300 resonance units (RU) are obtained. The running buffer is 10 mM HEPES, pH 7.4, 400 mM NaCl, 0.005% P20, […].

[2] = 100 nM AF488-labeled antibody, 37° C. for 6 hours, class symbols, read-out: Uptake Assay EC50
[3] = Biacore 8K, 25° C., IgG on CM5 chip, read-out: IgG SPR Binding Kd

CC(C)C[C@@H]1NC(=O)[C@H](Cc2c[nH]cn2)NC(=O)[C@H](Cc2c[nH]c3ccccc23)NC(=O)[C@H](C)NC(=O)[C@@H]2CSSC[C@H](NC(=O)[C@H](Cc3c[nH]c4ccccc34)NC(=O)[C@H](C(C)C)NC(=O)[C@H](CC(C)C)NC(=O)[C@H](CCC(=O)O)NC(=O)CNC1=O)C(=O)N[C@@H]([C@@H](C)O)C(=O)N1CCC[C@@H]1C(=O)N1C[C@@H](NC(=O)CCCc3cn(CCCCCC(=O)NC(COCCC(=O)NCCOCCOCCOCCOC[C@H]4OC[C@H](Nc5nccc(C(F)(F)F)n5)[C@@H](O)[C@H]4O)COCCC(=O)NCCOCCOCCOCCOC[C@H]4OC[C@H](Nc5nccc(C(F)(F)F)n5)[C@@H](O)[C@H]4O)nn3)C[C@H]1C(=O)N[C@@H](CC(=O)O)C(=O)N2 [Compound 53]
< 0.1 µM: EC50 [1] | EC50 ([1]; read-out: Ternary Complex EC50) | Kd (ASGPR) | EC50 (HepG2 cells; [2]) | EC50 (HepG2 cells; read-out: Uptake EC50) | Kd (IgG; [3]) | Kd (IgG; SPR, read-out: IgG KD)

CC(C)C[C@@H]1NC(=O)[C@H](Cc2c[nH]cn2)NC(=O)[C@H](Cc2c[nH]c3ccccc23)NC(=O)[C@H](C)NC(=O)[C@@H]2CSSC[C@H](NC(=O)[C@H](Cc3c[nH]c4ccccc34)NC(=O)[C@H](C(C)C)NC(=O)[C@H](CC(C)C)NC(=O)[C@H](CCC(=O)O)NC(=O)CNC1=O)C(=O)N[C@@H]([C@@H](C)O)C(=O)N1CCC[C@@H]1C(=O)N1C[C@@H](NC(=O)CCOCCOCCOCCOCCNC(=O)CCCc3cn(CCCCCC(=O)NC(COCCC(=O)NCCOCCOCCOCCOC[C@H]4OC[C@H](Nc5cncc(C(F)(F)F)n5)[C@@H](O)[C@H]4O)COCCC(=O)NCCOCCOCCOCCOC[C@H]4OC[C@H](Nc5cncc(C(F)(F)F)n5)[C@@H](O)[C@H]4O)nn3)C[C@H]1C(=O)N[C@@H](CC(=O)O)C(=O)N2 [Compound 4]
< 0.1 µM: EC50 [1] | EC50 ([1]; read-out: Ternary Complex EC50) | Kd (ASGPR) | EC50 (HepG2 cells; [2]) | EC50 (HepG2 cells; read-out: Uptake EC50) | Kd (IgG; SPR, read-out: IgG KD)

CC(C)C[C@@H]1NC(=O)[C@H](Cc2c[nH]cn2)NC(=O)[C@H](Cc2c[nH]c3ccccc23)NC(=O)[C@H](C)NC(=O)[C@@H]2CSSC[C@H](NC(=O)[C@H](Cc3c[nH]c4ccccc34)NC(=O)[C@H](C(C)C)NC(=O)[C@H](CC(C)C)NC(=O)[C@H](CCC(=O)O)NC(=O)CNC1=O)C(=O)N[C@@H]([C@@H](C)O)C(=O)N1CCC[C@@H]1C(=O)N1C[C@@H](NC(=O)CCOCCOCCOCCNC(=O)CCCc3cn(CCCCCC(=O)NC(COCCC(=O)NCCOCCOCCOCCOC[C@@]45CO[C@@H](O4)[C@H](Nc4nc(Cl)ns4)[C@@H](O)[C@H]5O)COCCC(=O)NCCOCCOCCOCCOC[C@@]45CO[C@@H](O4)[C@H](Nc4nc(Cl)ns4)[C@@H](O)[C@H]5O)nn3)C[C@H]1C(=O)N[C@@H](CC(=O)O)C(=O)N2 [Compound 8]
< 0.1 µM: EC50 [1] | Kd (ASGPR) | EC50 (HepG2 cells; [2]) | Kd (IgG; [3])

CC(C)C[C@@H]1NC(=O)[C@H](Cc2c[nH]cn2)NC(=O)[C@H](Cc2c[nH]c3ccccc23)NC(=O)[C@H](C)NC(=O)[C@@H]2CSSC[C@H](NC(=O)[C@H](Cc3c[nH]c4ccccc34)NC(=O)[C@H](C(C)C)NC(=O)[C@H](CC(C)C)NC(=O)[C@H](CCC(=O)O)NC(=O)CNC1=O)C(=O)N[C@@H]([C@@H](C)O)C(=O)N1CCC[C@@H]1C(=O)N1C[C@@H](NC(=O)CNC(COCCC(=O)NCCOCCOCCOCCOC[C@H]3OC[C@H](Nc4cncc(C(F)(F)F)n4)[C@@H](O)[C@H]3O)COCCC(=O)NCCOCCOCCOCCOC[C@H]3OC[C@H](Nc4cncc(C(F)(F)F)n4)[C@@H](O)[C@H]3O)C[C@H]1C(=O)N[C@@H](CC(=O)O)C(=O)N2 [Compound 45]
< 0.1 µM: EC50 [1] | Kd (ASGPR) | EC50 (HepG2 cells; [2]) | Kd (IgG; SPR, read-out: IgG KD)
